Several values for one entry are separate records, joined by “and”; a condition that tells them apart may be missing. Identical values can stand only once.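 These data come from cells grown in 96-well plates and exposed to compound for 48 hours at five concentrations. GI50 is the concentration that inhibits growth by half. The concentration for full growth arrest is given as TGI.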 Where a SMILES comes first, the peptide text is derived from it. [ ]: non-standard residue; d: D form. Ac5c = NC1(C(=O)O)CCCC1
test system: HL-60(TB) leukemia; assay: inhibition of tumour cell growth, NCI panel, 48 h

Row | Compound | TGI | GI50
1 | CC(=O)N[C@H]1C=C[C@@H]2/C=C(C)/C=C/[C@@H](C)[C@H]([C@H](C)[C@H](O)[C@@H](C)NC(C)=O)OC(=O)/C=C/C=C(C)\C=C\[C@]2(C)C1 | 4.65 µM and 20.6 µM | 
2 | O=C1c2ccccc2-c2c1c1ccccc1c(=O)n2CCCNCCCn1ccnc1 | 5.01 µM | 0.653 µM
3 | ClCc1cccc(Cn2cnc3c(NC45CC6CC(CC(C6)C4)C5)ncnc32)c1 | 26.6 µM | 1.24 µM
4 | COC(=O)c1cc2c(cc1Cl)SC(N(N(C)C)S(=O)(=O)c1ccc(Br)s1)=NS2(=O)=O | 44.5 µM | 19.6 µM
5 | O=c1c2cc(Cl)ccc2oc2ccc(OCCCCCN3CCCCC3)cc12 | 15.4 µM | 6.24 µM
6 | O=C1c2ccccc2C(=O)N1CCCSc1ccccc1 | > 100 µM | 
7 | CCOC(=O)Nc1nc2ccc(Cn3cccc3)cc2[nH]1 | 13.4 µM | 
8 | COc1cc(Nc2nccc(Nc3ccc4c(C)[nH]nc4c3)n2)cc(OC)c1OC | 9.04 µM | 3.31 µM
9 | COc1ccc(/C=N\NC(=O)CN2CCN(c3cc4c(cc3F)c(=O)c(C(=O)N/N=C/c3ccc(OC)c(OC)c3)cn4C3CC3)CC2)cc1OC | 18.2 µM | 3.36 µM

test system: HOP-92 NSCLC; assay: inhibition of tumour cell growth, NCI panel, 48 h

Row | Compound | TGI | GI50
10 | COc1ccc([N+](=O)[O-])c2c(NCCCN(C)C)c3ccccc3nc12 | 0.4 µM | 
11 | CCN1CCN(C(=O)[C@]23CC[C@@H](C)[C@H](C)[C@@H]2C2=CC[C@@H]4[C@@]5(C)C/C(=C/c6ccncc6)C(=O)C(C)(C)[C@@H]5CC[C@@]4(C)[C@]2(C)CC3)CC1 | 2.51 µM | 1.14 µM
12 | NC1(C(=O)NC2(C(=O)O)CCCC2)CCCC1 (H-[Ac5c]-[Ac5c]-OH) | > 100 µM | 
13 | COC(=O)CCc1cc(OC)c2c(c1)C(C(=O)OC)C(c1ccc(OC)c(OC)c1)O2 (configuration not stated) | > 100 µM | 
14 | CSc1nc(C)c2c(n1)SCC2 | > 10 µM | 
15 | CC1=C2[C@@H](CC1)[C@]1(C)O[C@@](C3CCCCC3)(C[C@H]1OC(=O)CO)[C@H]2OC(=O)/C=C/c1ccccc1 | 12.2 µM | 3.68 µM
16 | O=C(O[C@H]1CN[C@H](C#Cc2cc3ncnc(Nc4ccc5c(ccn5Cc5cc(F)ccc5F)c4)c3s2)C1)N1CCOCC1 | 3.9 µM | 0.357 µM
17 | CC(=O)c1c(C)[nH]c(-c2nc3ccc(N4CCN(C)CC4)cc3[nH]2)c1-c1ccc(OCC2CCOCC2)cc1 | 2.79 µM | 0.11 µM
18 | Cc1nc2sc(C(=O)Nc3cccc(Cl)c3C)c(N)c2cc1C(=O)/C=C/c1ccccc1 | 2.11 µM | 0.371 µM
19 | C=C1C(=O)O[C@H]2[C@H]1CC/C(CNC(=O)c1cc3cc(OC)ccc3[nH]1)=C\CC[C@@]1(C)O[C@@H]21 | 3.35 µM | 1.56 µM
20 | O=S(=O)(NC1=NCCN1C(=S)SN1CCn2c1nsc2=S)c1ccc(Br)cc1 | 36.7 µM | 0.0273 µM
21 | CC(=O)N[C@H]1C=C[C@@H]2/C=C(C)/C=C/[C@@H](C)[C@H]([C@H](C)[C@H](O)[C@@H](C)NC(C)=O)OC(=O)/C=C/C=C(C)\C=C\[C@]2(C)C1 |  | 0.00954 µM and 0.0045 µM
22 | O=C1c2ccccc2-c2c1c1ccccc1c(=O)n2CCCNCCCn1ccnc1 | 7.57 µM | 0.95 µM
23 | ClCc1cccc(Cn2cnc3c(NC45CC6CC(CC(C6)C4)C5)ncnc32)c1 | 34.5 µM | 17.3 µM
24 | COC(=O)c1cc2c(cc1Cl)SC(N(N(C)C)S(=O)(=O)c1ccc(Br)s1)=NS2(=O)=O | 36.7 µM | 18.5 µM
25 | O=c1c2cc(Cl)ccc2oc2ccc(OCCCCCN3CCCCC3)cc12 | 10.3 µM | 3.55 µM

— PubChem BioAssay (NCI)
